Each structure is given as a SMILES string.

This assay has as its target T1, IRAK4 (Homo sapiens, UniProt Q9NWZ3).
T1 construct: knocking-in a HiBiT fusion tag into the C-terminal of the IRAK4 gene in 293T cells; host or cells: 293T cells, knock-in of HiBiT at the endogenous IRAK4 locus
T1 sequence (Q9NWZ3 1-460): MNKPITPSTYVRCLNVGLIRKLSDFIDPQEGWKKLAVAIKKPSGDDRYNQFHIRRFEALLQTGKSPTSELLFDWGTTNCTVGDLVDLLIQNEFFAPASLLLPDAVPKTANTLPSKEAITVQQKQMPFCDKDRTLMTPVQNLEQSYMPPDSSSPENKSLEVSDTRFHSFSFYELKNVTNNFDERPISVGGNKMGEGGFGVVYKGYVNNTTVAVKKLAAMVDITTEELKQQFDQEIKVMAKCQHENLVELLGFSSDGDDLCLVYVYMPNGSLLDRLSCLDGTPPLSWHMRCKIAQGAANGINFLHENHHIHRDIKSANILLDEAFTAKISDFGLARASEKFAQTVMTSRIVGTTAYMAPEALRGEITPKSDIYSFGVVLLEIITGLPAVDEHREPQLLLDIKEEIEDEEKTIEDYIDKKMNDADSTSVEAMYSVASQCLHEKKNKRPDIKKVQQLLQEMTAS
In words: IRAK4 degradation assay using the HiBiT Method. Type of assay: cell-based. The following applies: 293T cells expressing HiBiT-tagged IRAK4; 6-hour incubation; Nano-Glo HiBiT Lytic Assay luminescence. The method, then: Selected compounds were tested in an IRAK4 degradation assay using the HiBiT Method.
Phenol red-free Dulbecco's modified Eagle medium (DMEM) and fetal bovine serum (FBS) were purchased from Gibco (Grand Island, NY, USA). The Nano-Glo© HiBiT Lytic Assay System was purchased from Promega (Madison, WI, USA). Cell culture flasks and 384-well microplates were acquired from VWR (Radnor, PA, USA). The 293T cell line was engineered by knocking-in a HiBiT fusion tag into the C-terminal of the IRAK4 gene in 293T cells (Synthego, Redwood City, CA, USA).
IRAK4 degradation was measured via the quantification of luminescent signals using the Nano-Glo© HiBiT Lytic Assay kit. Test compounds were added to 384-well plates in duplicate using an 11-point half-log dilution series, with the highest dose set at 10 mM. 293T cells expressing HiBiT-tagged IRAK4 were then added into 384-well plates at a cell density of 10,000 cells per well. The plates were kept at 37° C. with 5% CO2 for 6 hours. Cells that were treated only with DMSO served as the negative control; wells that contained only assay media served as the background control. After the 6-hour incubation, Nano-Glo® HiBiT Lytic Assay reagents were added to the cells. Luminescence was acquired using an EnVision® Multilabel Reader (PerkinElmer, Santa Clara, CA, USA).
In general terms: With HiBiT, luminescence reflects the tagged protein that the partner subunit can reach.
For the compound `CC(C)Oc1cc2nc(C3CCN(CCC(=O)N4CCC(c5ccc(NC6CCC(=O)NC6=O)cc5F)CC4)CC3)cn2cc1NC(=O)c1cccc(C(F)(F)F)n1` (centres unmarked) [Example 31, N-[2-[1-[3-[4-[4-[(2,6-dioxo-3-piperidyl)amino]-2-fluoro-phenyl]-1-piperidyl]-3-oxo-propyl]-4-piperidyl]-7-isopropoxy-imidazo[1,2-a]pyridin-6-yl]-6-(trifluoromethyl)pyridine-2-carboxamide], the DC50 (commonly the concentration giving 50% degradation) is 100 to 500 nM.

Turning to `CC(C)Oc1cc2nc(C3CCN(CC(=O)N4CCC(c5ccc(NC6CCC(=O)NC6=O)cc5)CC4)CC3)cn2cc1NC(=O)c1cccc(C(F)F)c1` (centres unmarked) [Example 61, 3-(difluoromethyl)-N-(2-(1-(2-(4-(4-((2,6-dioxopiperidin-3-yl)amino)phenyl)piperidin-1-yl)-2-oxoethyl)piperidin-4-yl)-7-isopropoxyimidazo[1,2-a]pyridin-6-yl)benzamide], the DC50 fell in the range of 10 to 100 nM.

`CC(C)Oc1cc2nc(C3CCN(C(=O)C4CC5(CCCN5C(=O)c5ccc(OC6CCC(=O)NC6=O)cc5)C4)CC3)cn2cc1NC(=O)c1cccc(C(F)(F)F)n1` (centres unmarked) [Example 80, N-[2-[1-[5-[4-[(2,6-dioxo-3-piperidyl)oxy]benzoyl]-5-azaspiro[3.4]octane-2-carbonyl]-4-piperidyl]-7-isopropoxy-imidazo[1,2-a]pyridin-6-yl]-6-(trifluoromethyl)pyridine-2-carboxamide] registered a DC50 of 100 to 500 nM.

As for `CC(C)Oc1cc2nc([C@H](Cc3ccccc3)NC(=O)CN3CCC(c4ccc(C5CCC(=O)NC5=O)cc4)CC3)cn2cc1NC(=O)c1cccc(C(F)(F)F)n1` (stereo partly drawn) [Example 73, N-[2-[(1S)-1-[[2-[4-[4-(2,6-dioxo-3-piperidyl)phenyl]-1-piperidyl]acetyl]amino]-2-phenyl-ethyl]-7-isopropoxy-imidazo[1,2-a]pyridin-6-yl]-6-(trifluoromethyl)pyridine-2-carboxamide], the DC50 was in the range of 100 to 500 nM.

In turn, `CC(C)Oc1cc2nc(C3CN(CCC(=O)N4CCC(c5ccc(NC6CCC(=O)NC6=O)cc5)CC4)C3)cn2cc1NC(=O)c1cccc(C(F)(F)F)n1` (centres unmarked) [Example 34, N-[2-[1-[3-[4-[4-[(2,6-dioxo-3-piperidyl)amino]phenyl]-1-piperidyl]-3-oxo-propyl]azetidin-3-yl]-7-isopropoxy-imidazo[1,2-a]pyridin-6-yl]-6-(trifluoromethyl)pyridine-2-carboxamide] came in with a DC50 of 100 to 500 nM.

For the compound `CC(C)Oc1cc2nc(C3CCC(CN4CCC(c5ccc6c(c5)n(C)c(=O)n6C5CCC(=O)NC5=O)CC4)CC3)cn2cc1NC(=O)c1cccc(C(F)(F)F)n1` (centres unmarked) [Example 47, N-[2-[4-[[4-[1-(2,6-dioxo-3-piperidyl)-3-methyl-2-oxo-benzimidazol-5-yl]-1-piperidyl]methyl]cyclohexyl]-7-isopropoxy-imidazo[1,2-a]pyridin-6-yl]-6-(trifluoromethyl)pyridine-2-carboxamide], the DC50 lay in the range of 100 to 500 nM.

`CC(C)Oc1cc2nc(C3CCN(CCC(=O)N4CCN(c5ccc(OC6CCC(=O)NC6=O)cc5)CC4)CC3)cn2cc1NC(=O)c1cccc(C(F)(F)F)n1` (centres unmarked) [Example 33, N-[2-[1-[3-[4-[4-[(2,6-dioxo-3-piperidyl)oxy]phenyl]piperazin-1-yl]-3-oxo-propyl]-4-piperidyl]-7-isopropoxy-imidazo[1,2-a]pyridin-6-yl]-6-(trifluoromethyl)pyridine-2-carboxamide]: the DC50 was in the range of 100 to 500 nM.

`Cc1cc(-c2nc(C(=O)Nc3cn4cc(C5CCN(CC(=O)N6CCC(c7ccc(NC8CCC(=O)NC8=O)cc7)CC6)CC5)nc4cc3OC(C)C)co2)ccn1` (centres unmarked) [Example 58, N-(2-(1-(2-(4-(4-((2,6-dioxopiperidin-3-yl)amino)phenyl)piperidin-1-yl)-2-oxoethyl)piperidin-4-yl)-7-isopropoxyimidazo[1,2-a]pyridin-6-yl)-2-(2-methylpyridin-4-yl)oxazole-4-carboxamide] returned a DC50 of 10 to 100 nM.

The values are drawn from patent publication US20250018046A1, “COMPOUNDS FOR TARGETING DEGRADATION OF IRAK4 PROTEINS” (BIOGEN MA INC, priority 2021, published 2025).
